Results on eight compounds are retold here after patent publication US20220323406A1, “METHODS AND COMPOSITIONS FOR DIFFERENTIATING STEM CELLS” (Massachusetts Institute of Technology, priority 2019, published 2022).

SMILES strings stand for the structures. Counter-ions that a name gives are not always drawn.

Assay [1] relates to ENR+CD organoids (ISC to Paneth cell differentiation). Briefly: Primary screen: basal (non-stimulated) lysozyme secretion LYZ.NS, 2.5-D 384-well ENR+CD organoid differentiation. The class given is cell-based, mouse. From the text: (§1) High-throughput screening.
Assay [2] shares this test system. As to the kind of experiment: Primary screen: CCh-stimulated lysozyme secretion LYZ.S, 2.5-D 384-well ENR+CD organoid differentiation. The class given is cell-based, mouse. As to conditions: primary screen.
Description: as §1

The test system of assay [3] is ENR+CD organoids. Briefly: Primary screen: ATP (CellTiter-Glo 3D, CTG) cell number/viability, 2.5-D 384-well ENR+CD organoids.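 Also: compounds given at plating and again on day 3 over a 6-day differentiation from ENR+CV stem-cell-enriched precursors, ATP measured on day 6, plate median as control.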 To be noted: primary screen. In general terms: ATP-based viability assays read luminescence as a measure of living cells.
The mark [4] stands for this setting: dose 0.08 uM, FC vs plate median.
Setting [5] is: dose 0.40 uM, FC vs plate median.
Setting [6] is: dose 2.00 uM, FC vs plate median.

Turning to `O=C(/C=C/c1cccc(S(=O)(=O)Nc2ccccc2)c1)NO` [Belinostat (PXD101)], the Dose.FC.LYZ.NS in assay [1] (primary screen, dose 0.08 uM) was 0.008 log2 fold change; in assay [1] (primary screen, dose 0.40 uM) it was 0.129 log2 fold change; in assay [1] (primary screen, dose 2.00 uM), −0.173 log2 fold change; in assay [1] (primary screen, dose 10.00 uM) it was −0.196 log2 fold change. For the same compound, the “Z.LYZ.NS (standard z score)” value is 0.067 in assay [1] (primary screen, dose 0.08 uM); 1.125 in assay [1] (primary screen, dose 0.40 uM); −1.510 in assay [1] (primary screen, dose 2.00 uM); −1.709 in assay [1] (primary screen, dose 10.00 uM). Further, the Dose.FC.LYZ.S in assay [2] (dose 0.08 uM) was −0.059 log2 fold change; in assay [2] (dose 0.40 uM), 0.042 log2 fold change; in assay [2] (dose 2.00 uM), −0.264 log2 fold change; in assay [2] (dose 10.00 uM) it was −0.327 log2 fold change. In addition, the Dose.FC.CTG in assay [3] (dose 0.08 uM) is on record as −0.227 log2 fold change; in assay [3] (dose 0.40 uM), −0.055 log2 fold change; in assay [3] (dose 2.00 uM), −0.782 log2 fold change; in assay [3] (dose 10.00 uM), −1.122 log2 fold change. In addition, the “Z.CTG (standard z score)” value in assay [3] (dose 0.08 uM) is on record as −0.543; in assay [3] (dose 0.40 uM), −0.133; in assay [3] (dose 2.00 uM), −1.868; in assay [3] (dose 10.00 uM), −2.679.
For `C[C@@H](NCCCc1cccc(C(F)(F)F)c1)c1cccc2ccccc12` [Cinacalcet HCl], the Dose.FC.LYZ.NS in assay [1] (primary screen, dose 0.08 uM) is listed as −0.062 log2 fold change; in assay [1] (primary screen, dose 0.40 uM), −0.023 log2 fold change; in assay [1] (primary screen, dose 2.00 uM), −0.022 log2 fold change; in assay [1] (primary screen, dose 10.00 uM), −0.091 log2 fold change. Moreover, the Z.LYZ.NS is −0.536 in assay [1] (primary screen, standard z score, dose 0.08 uM); −0.202 in assay [1] (primary screen, standard z score, dose 0.40 uM); −0.189 in assay [1] (primary screen, standard z score, dose 2.00 uM); −0.790 in assay [1] (primary screen, standard z score, dose 10.00 uM). In addition, the Dose.FC.LYZ.S is reported as −0.084 log2 fold change in assay [2] (dose 0.08 uM), 0.039 log2 fold change in assay [2] (dose 0.40 uM), −0.025 log2 fold change in assay [2] (dose 2.00 uM) and −0.130 log2 fold change in assay [2] (dose 10.00 uM). Moreover, the Dose.FC.CTG in assay [3] (dose 0.08 uM) is on record as −0.444 log2 fold change; in assay [3] (dose 0.40 uM) it was −0.298 log2 fold change; in assay [3] (dose 2.00 uM), −0.012 log2 fold change; in assay [3] (dose 10.00 uM) it was −0.451 log2 fold change.
On to `CC(/C=C/C(=O)NO)=C\[C@@H](C)C(=O)c1ccc(N(C)C)cc1` [Trichostatin A (TSA)], for which the Dose.FC.LYZ.NS was −0.064 log2 fold change in assay [1] (primary screen, dose 0.08 uM); −0.195 log2 fold change in assay [1] (primary screen, dose 0.40 uM); −0.153 log2 fold change in assay [1] (primary screen, dose 2.00 uM); −0.149 log2 fold change in assay [1] (primary screen, dose 10.00 uM). For the same compound, the “Z.LYZ.NS (standard z score)” value in assay [1] (primary screen, dose 0.08 uM) is −0.554; in assay [1] (primary screen, dose 0.40 uM), −1.697; in assay [1] (primary screen, dose 2.00 uM), −1.334; in assay [1] (primary screen, dose 10.00 uM), −1.298. Besides, the Dose.FC.LYZ.S in assay [2] (dose 0.08 uM) was −0.124 log2 fold change; in assay [2] (dose 0.40 uM), −0.254 log2 fold change; in assay [2] (dose 2.00 uM), −0.210 log2 fold change; in assay [2] (dose 10.00 uM), −0.202 log2 fold change. Also, the Dose.FC.CTG in assay [3] (dose 0.08 uM) is 0.191 log2 fold change; in assay [3] (dose 0.40 uM), −0.801 log2 fold change; in assay [3] (dose 2.00 uM) it was −0.904 log2 fold change; in assay [3] (dose 10.00 uM), −0.826 log2 fold change. The “Z.CTG (standard z score)” value in assay [3] (dose 0.08 uM) was 0.457; in assay [3] (dose 0.40 uM), −1.913; in assay [3] (dose 2.00 uM) it was −2.159; in assay [3] (dose 10.00 uM), −1.974.
As to `COc1ccc(C(=O)N2CCCC2=O)cc1` [Aniracetam], the Dose.FC.LYZ.NS in assay [1] (primary screen, dose 0.08 uM) worked out at 0.089 log2 fold change; in assay [1] (primary screen, dose 0.40 uM), 0.056 log2 fold change; in assay [1] (primary screen, dose 2.00 uM) it was 0.032 log2 fold change; in assay [1] (primary screen, dose 10.00 uM), 0.012 log2 fold change. Moreover, the “Z.LYZ.NS (standard z score)” value in assay [1] (primary screen, dose 0.08 uM) is on record as 0.774; in assay [1] (primary screen, dose 0.40 uM), 0.486; in assay [1] (primary screen, dose 2.00 uM) it was 0.277; in assay [1] (primary screen, dose 10.00 uM), 0.105. The Dose.FC.LYZ.S is 0.043 log2 fold change in assay [2] (dose 0.08 uM), 0.148 log2 fold change in assay [2] (dose 0.40 uM), 0.005 log2 fold change in assay [2] (dose 2.00 uM) and −0.028 log2 fold change in assay [2] (dose 10.00 uM). Moreover, the Dose.FC.CTG in assay [3] (dose 0.08 uM) is −0.088 log2 fold change; in assay [3] (dose 0.40 uM) it was 0.112 log2 fold change; in assay [3] (dose 2.00 uM) it was 0.054 log2 fold change; in assay [3] (dose 10.00 uM), 0.019 log2 fold change.
As to `O=C1CC[C@@]2(O)[C@H]3Cc4ccc(O)c5c4[C@@]2(CCN3CC2CC2)[C@H]1O5` [Naltrexone HCl], the Z.LYZ.NS in assay [1] (primary screen, dose 0.08 uM, standard z score) was −0.067; in assay [1] (primary screen, dose 0.40 uM, standard z score), −0.043; in assay [1] (primary screen, dose 2.00 uM, standard z score) it was 0.166; in assay [1] (primary screen, dose 10.00 uM, standard z score), 0.302. The Dose.FC.LYZ.NS in assay [1] (primary screen; dose 0.08 uM; FC vs plate median) was −0.008 log2 fold change; in assay [1] (primary screen; dose 0.40 uM; FC vs plate median), −0.005 log2 fold change; in assay [1] (primary screen; dose 2.00 uM; FC vs plate median), 0.019 log2 fold change; in assay [1] (primary screen; dose 10.00 uM; FC vs plate median), 0.035 log2 fold change. Besides, the Dose.FC.LYZ.S in assay [2] (setting [4]) turned out to be 0.002 log2 fold change; in assay [2] (setting [5]), 0.025 log2 fold change; in assay [2] (setting [6]), 0.025 log2 fold change; in assay [2] (dose 10.00 uM, FC vs plate median), 0.045 log2 fold change. Further, the Dose.FC.CTG in assay [3] (setting [4]) worked out at 0.089 log2 fold change; in assay [3] (setting [5]), 0.070 log2 fold change; in assay [3] (setting [6]), 0.004 log2 fold change.
As for `CCCSc1nc(N[C@@H]2C[C@H]2c2ccc(F)c(F)c2)c2nnn([C@@H]3C[C@H](OCCO)[C@@H](O)[C@H]3O)c2n1` [Ticagrelor], the Dose.FC.LYZ.NS in assay [1] (primary screen, dose 0.08 uM) was 0.115 log2 fold change; in assay [1] (primary screen, dose 0.40 uM) it was −0.032 log2 fold change; in assay [1] (primary screen, dose 2.00 uM), 0.120 log2 fold change; in assay [1] (primary screen, dose 10.00 uM), 0.020 log2 fold change. The “Z.LYZ.NS (standard z score)” value in assay [1] (primary screen, dose 0.08 uM) is 0.998; in assay [1] (primary screen, dose 0.40 uM), −0.276; in assay [1] (primary screen, dose 2.00 uM), 1.041; in assay [1] (primary screen, dose 10.00 uM), 0.170. The Dose.FC.LYZ.S in assay [2] (dose 0.08 uM) stood at 0.042 log2 fold change; in assay [2] (dose 0.40 uM) it was 0.000 log2 fold change; in assay [2] (dose 2.00 uM), 0.018 log2 fold change; in assay [2] (dose 10.00 uM) it was 0.022 log2 fold change. The Dose.FC.CTG in assay [3] (dose 0.08 uM) is recorded as −0.080 log2 fold change; in assay [3] (dose 0.40 uM) it was −0.029 log2 fold change; in assay [3] (dose 2.00 uM), −0.270 log2 fold change; in assay [3] (dose 10.00 uM), −0.241 log2 fold change.
With `COc1cc(N2CCC(N)CC2)ccc1Nc1ncc(Cl)c(-c2c[nH]c3ccccc23)n1` [AZD3463], the Dose.FC.LYZ.NS in assay [1] (primary screen, dose 0.08 uM) is listed as −0.147 log2 fold change; in assay [1] (primary screen, dose 0.40 uM), −0.190 log2 fold change; in assay [1] (primary screen, dose 2.00 uM), −0.232 log2 fold change; in assay [1] (primary screen, dose 10.00 uM), −0.209 log2 fold change. Moreover, the “Z.LYZ.NS (standard z score)” value is reported as −1.279 in assay [1] (primary screen, dose 0.08 uM); −1.652 in assay [1] (primary screen, dose 0.40 uM); −2.021 in assay [1] (primary screen, dose 2.00 uM); −1.820 in assay [1] (primary screen, dose 10.00 uM). Further, the Dose.FC.LYZ.S in assay [2] (dose 0.08 uM) was −0.199 log2 fold change; in assay [2] (dose 0.40 uM), −0.293 log2 fold change; in assay [2] (dose 2.00 uM), −0.315 log2 fold change; in assay [2] (dose 10.00 uM), −0.328 log2 fold change. Further, the Dose.FC.CTG is −0.275 log2 fold change in assay [3] (dose 0.08 uM), −0.341 log2 fold change in assay [3] (dose 0.40 uM), −0.772 log2 fold change in assay [3] (dose 2.00 uM) and −0.960 log2 fold change in assay [3] (dose 10.00 uM). For the same compound, the “Z.CTG (standard z score)” value in assay [3] (dose 0.08 uM) is reported as −0.657; in assay [3] (dose 0.40 uM), −0.814; in assay [3] (dose 2.00 uM), −1.843; in assay [3] (dose 10.00 uM) it was −2.293.
`c1ccc(CC2=NCCN2)cc1` [Tolazoline HCl]: the Dose.FC.LYZ.NS in assay [1] (primary screen, dose 0.08 uM) is 0.144 log2 fold change; in assay [1] (primary screen, dose 0.40 uM), 0.084 log2 fold change; in assay [1] (primary screen, dose 2.00 uM), 0.088 log2 fold change; in assay [1] (primary screen, dose 10.00 uM), −0.049 log2 fold change. Besides, the “Z.LYZ.NS (standard z score)” value in assay [1] (primary screen, dose 0.08 uM) was 1.255; in assay [1] (primary screen, dose 0.40 uM), 0.728; in assay [1] (primary screen, dose 2.00 uM), 0.765; in assay [1] (primary screen, dose 10.00 uM) it was −0.424. The Dose.FC.LYZ.S is reported as 0.169 log2 fold change in assay [2] (dose 0.08 uM), 0.128 log2 fold change in assay [2] (dose 0.40 uM), 0.069 log2 fold change in assay [2] (dose 2.00 uM) and −0.063 log2 fold change in assay [2] (dose 10.00 uM). The Dose.FC.CTG in assay [3] (dose 0.08 uM) is recorded as 0.245 log2 fold change; in assay [3] (dose 0.40 uM), 0.222 log2 fold change; in assay [3] (dose 2.00 uM) it was −0.051 log2 fold change; in assay [3] (dose 10.00 uM), −0.208 log2 fold change.
